Reference: US9340590B2 (priority 2011, dated 2016)
Positions of bridges follow the written chain, without caps; N, C: chain ends. Residues, ends and D or L forms follow the SMILES beside them.

What was measured:
Assay in all cases: cell-based
hNav1.7 = hNav1.7 (Homo sapiens, UniProt Q15858); type: cell-based; conditions: IonWorks Quattro, use-dependent block, hNav1.7; read-out: IWQ Use Nav1.7
hNav1.5 = hNav1.5 (Homo sapiens, UniProt Q14524); conditions: IonWorks Quattro, use-dependent block, hNav1.5; read-out: IWQ Use Nav1.5
hNav1.3 = hNav1.3 (Homo sapiens, UniProt Q9NY46); conditions: IonWorks Quattro, use-dependent block, hNav1.3; read-out: IWQ Use Nav1.3
Chain of hNav1.3 (Q9NY46 whole entry, looked up): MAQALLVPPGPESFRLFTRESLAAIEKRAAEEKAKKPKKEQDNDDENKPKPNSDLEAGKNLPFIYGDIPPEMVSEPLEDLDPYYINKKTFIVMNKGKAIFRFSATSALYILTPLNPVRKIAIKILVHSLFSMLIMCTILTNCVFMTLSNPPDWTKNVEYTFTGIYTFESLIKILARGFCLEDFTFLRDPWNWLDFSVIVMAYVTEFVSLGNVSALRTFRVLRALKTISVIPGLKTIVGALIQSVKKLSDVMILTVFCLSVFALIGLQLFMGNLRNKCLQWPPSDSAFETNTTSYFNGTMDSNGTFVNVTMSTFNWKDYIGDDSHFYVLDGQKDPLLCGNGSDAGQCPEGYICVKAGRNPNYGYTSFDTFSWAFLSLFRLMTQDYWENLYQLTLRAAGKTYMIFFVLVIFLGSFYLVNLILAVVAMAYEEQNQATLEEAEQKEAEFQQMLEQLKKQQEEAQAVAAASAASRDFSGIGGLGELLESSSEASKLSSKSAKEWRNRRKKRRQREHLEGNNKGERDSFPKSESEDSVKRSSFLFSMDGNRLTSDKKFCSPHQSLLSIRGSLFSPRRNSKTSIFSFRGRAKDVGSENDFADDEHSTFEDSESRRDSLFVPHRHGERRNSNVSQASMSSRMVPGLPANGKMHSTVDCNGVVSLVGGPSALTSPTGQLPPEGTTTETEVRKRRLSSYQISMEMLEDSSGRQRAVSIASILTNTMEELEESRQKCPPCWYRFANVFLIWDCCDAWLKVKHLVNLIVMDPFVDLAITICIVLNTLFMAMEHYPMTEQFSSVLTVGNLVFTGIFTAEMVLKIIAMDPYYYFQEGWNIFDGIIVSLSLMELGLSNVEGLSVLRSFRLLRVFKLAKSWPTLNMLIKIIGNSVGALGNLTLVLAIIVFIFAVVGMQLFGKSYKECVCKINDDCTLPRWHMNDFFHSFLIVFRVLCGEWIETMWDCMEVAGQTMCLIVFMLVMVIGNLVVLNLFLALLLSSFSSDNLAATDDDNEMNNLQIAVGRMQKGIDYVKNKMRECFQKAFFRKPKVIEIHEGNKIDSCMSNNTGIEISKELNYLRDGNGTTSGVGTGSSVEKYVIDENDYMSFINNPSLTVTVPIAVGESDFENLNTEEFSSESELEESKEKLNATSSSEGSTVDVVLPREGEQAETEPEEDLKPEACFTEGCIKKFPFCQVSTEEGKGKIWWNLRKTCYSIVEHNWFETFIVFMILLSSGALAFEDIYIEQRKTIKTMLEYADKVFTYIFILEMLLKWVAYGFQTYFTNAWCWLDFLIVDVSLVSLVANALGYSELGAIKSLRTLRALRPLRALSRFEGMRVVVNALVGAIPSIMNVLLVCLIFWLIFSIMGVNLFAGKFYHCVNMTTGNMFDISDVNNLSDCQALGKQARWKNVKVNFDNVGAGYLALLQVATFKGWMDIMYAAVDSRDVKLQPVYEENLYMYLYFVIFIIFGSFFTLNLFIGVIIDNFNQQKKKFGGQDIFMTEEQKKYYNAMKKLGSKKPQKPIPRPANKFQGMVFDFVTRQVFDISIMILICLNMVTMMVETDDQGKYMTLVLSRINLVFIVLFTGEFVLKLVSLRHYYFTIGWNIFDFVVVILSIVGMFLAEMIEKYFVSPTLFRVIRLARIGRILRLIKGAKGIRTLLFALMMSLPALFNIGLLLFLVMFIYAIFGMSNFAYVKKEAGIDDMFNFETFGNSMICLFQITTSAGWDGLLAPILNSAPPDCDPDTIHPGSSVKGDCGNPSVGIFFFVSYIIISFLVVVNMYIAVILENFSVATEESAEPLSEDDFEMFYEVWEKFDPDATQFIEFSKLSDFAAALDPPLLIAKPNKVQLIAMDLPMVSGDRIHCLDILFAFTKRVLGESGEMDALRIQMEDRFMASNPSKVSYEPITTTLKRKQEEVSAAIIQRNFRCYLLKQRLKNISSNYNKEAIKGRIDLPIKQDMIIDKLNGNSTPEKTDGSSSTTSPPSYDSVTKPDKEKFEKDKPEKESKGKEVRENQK

Chain of hNav1.7 (Q15858 whole entry, looked up): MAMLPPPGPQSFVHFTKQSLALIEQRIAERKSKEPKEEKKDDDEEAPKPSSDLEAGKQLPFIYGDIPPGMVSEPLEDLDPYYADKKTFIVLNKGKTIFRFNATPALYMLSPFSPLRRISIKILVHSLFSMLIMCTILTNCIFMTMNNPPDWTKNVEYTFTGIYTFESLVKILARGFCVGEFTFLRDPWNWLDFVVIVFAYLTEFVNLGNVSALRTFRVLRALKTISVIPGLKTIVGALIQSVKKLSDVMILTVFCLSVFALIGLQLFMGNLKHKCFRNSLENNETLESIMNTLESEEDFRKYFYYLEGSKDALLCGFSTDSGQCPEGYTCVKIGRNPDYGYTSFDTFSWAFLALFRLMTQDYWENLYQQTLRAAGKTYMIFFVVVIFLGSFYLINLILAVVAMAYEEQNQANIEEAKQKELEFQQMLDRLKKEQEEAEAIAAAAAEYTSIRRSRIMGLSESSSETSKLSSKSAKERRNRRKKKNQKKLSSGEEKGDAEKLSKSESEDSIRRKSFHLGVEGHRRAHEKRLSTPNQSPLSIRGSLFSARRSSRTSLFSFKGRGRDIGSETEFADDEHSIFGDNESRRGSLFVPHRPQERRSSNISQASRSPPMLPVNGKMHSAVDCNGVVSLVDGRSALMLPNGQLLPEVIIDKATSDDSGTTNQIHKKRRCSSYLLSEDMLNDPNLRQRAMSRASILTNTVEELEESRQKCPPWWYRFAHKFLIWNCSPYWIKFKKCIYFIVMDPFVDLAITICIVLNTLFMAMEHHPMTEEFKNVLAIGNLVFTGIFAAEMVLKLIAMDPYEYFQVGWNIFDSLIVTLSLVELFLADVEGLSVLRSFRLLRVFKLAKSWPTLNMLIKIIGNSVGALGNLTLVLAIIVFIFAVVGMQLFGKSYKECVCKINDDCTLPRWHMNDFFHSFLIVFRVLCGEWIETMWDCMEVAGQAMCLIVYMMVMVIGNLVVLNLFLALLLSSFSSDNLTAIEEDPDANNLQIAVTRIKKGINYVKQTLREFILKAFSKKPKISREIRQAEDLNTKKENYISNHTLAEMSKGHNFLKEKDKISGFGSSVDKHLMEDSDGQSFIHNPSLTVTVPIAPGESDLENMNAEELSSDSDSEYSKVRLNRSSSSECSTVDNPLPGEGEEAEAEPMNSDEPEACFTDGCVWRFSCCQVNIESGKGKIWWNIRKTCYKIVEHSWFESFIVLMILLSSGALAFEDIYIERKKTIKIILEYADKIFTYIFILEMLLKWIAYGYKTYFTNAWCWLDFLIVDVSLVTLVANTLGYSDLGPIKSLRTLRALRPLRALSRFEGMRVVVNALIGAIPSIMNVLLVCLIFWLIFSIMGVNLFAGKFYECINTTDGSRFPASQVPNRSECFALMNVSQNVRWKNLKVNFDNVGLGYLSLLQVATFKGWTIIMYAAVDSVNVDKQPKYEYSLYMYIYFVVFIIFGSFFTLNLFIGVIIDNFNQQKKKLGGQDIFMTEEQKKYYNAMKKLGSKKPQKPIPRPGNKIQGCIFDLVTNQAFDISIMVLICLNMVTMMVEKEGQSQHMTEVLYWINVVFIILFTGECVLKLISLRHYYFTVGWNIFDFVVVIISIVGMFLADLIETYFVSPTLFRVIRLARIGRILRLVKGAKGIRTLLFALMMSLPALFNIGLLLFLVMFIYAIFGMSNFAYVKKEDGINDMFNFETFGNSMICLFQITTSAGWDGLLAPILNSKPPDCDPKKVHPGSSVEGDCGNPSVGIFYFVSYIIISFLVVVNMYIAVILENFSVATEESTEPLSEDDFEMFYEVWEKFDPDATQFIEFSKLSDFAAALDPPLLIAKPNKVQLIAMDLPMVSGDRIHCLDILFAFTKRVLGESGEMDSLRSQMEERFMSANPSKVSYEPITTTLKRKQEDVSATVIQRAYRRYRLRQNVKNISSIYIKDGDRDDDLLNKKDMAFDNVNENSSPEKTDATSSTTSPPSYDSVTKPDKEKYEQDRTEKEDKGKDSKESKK

SMILES | IC50 (hNav1.7) [µM] | IC50 (hNav1.5) [µM] | IC50 (hNav1.3) [µM]
CC[C@H](C)[C@@H]1NC(=O)[C@@H]2CSSC[C@@H]3NC(=O)[C@H](C(C)C)NC(=O)[C@H](CC(C)C)NC(=O)[C@H](CC(N)=O)NC(=O)[C@@H]4CCCN4C(=O)[C@H](CCCNC(=N)N)NC(=O)[C@H](CSSC[C@H](NC(=O)[C@@H](N)CC(=O)O)C(=O)N[C@@H](CC(C)C)C(=O)NCC(=O)N[C@@H](C)C(=O)N[C@@H](CC(C)C)C(=O)N[C@@H](CCCNC(=N)N)C(=O)N[C@@H](CCCCN)C(=O)N2)NC(=O)[C@H](CSSC[C@@H](C(=O)N[C@@H](CCCCN)C(=O)N[C@@H](Cc2ccc(O)cc2)C(=O)N[C@H](C(=O)N[C@@H](Cc2ccccc2)C(=O)O)C(C)C)NC(=O)[C@H](Cc2c[nH]c4ccccc24)NC(=O)[C@H](CCSC)NC(=O)[C@H](Cc2c[nH]cn2)NC(=O)[C@H]([C@@H](C)O)NC(=O)[C@H](CCCNC(=N)N)NC(=O)[C@H](CO)NC3=O)NC(=O)[C@H](CCCCN)NC(=O)[C@H](CC(=O)O)NC(=O)[C@H](CC(N)=O)NC(=O)[C@H](CC(=O)O)NC(=O)[C@@H]2CCCN2C1=O [compound 857] (H-DCLGALRKCIPDNDKCCRPNLVCSRTHMWCKYVF-OH; disulfide 2-17, 9-23, 16-30) | > 5 | > 5 | > 5
CC[C@H](C)[C@@H]1NC(=O)[C@@H]2CSSC[C@@H]3NC(=O)[C@H](C(C)C)NC(=O)[C@H](CC(C)C)NC(=O)[C@H](CC(N)=O)NC(=O)[C@@H]4CCCN4C(=O)[C@H](CCCNC(=N)N)NC(=O)[C@H](CSSC[C@H](NC(=O)[C@@H](N)CC(=O)O)C(=O)N[C@@H](CC(C)C)C(=O)NCC(=O)N[C@@H](C)C(=O)N[C@@H](CC(C)C)C(=O)N[C@@H](CCCNC(=N)N)C(=O)N[C@@H](CCCCN)C(=O)N2)NC(=O)[C@H](CSSC[C@@H](C(=O)N[C@@H](CCCCN)C(=O)N[C@@H](Cc2ccc(O)cc2)C(=O)N[C@H](C(=O)N[C@@H](Cc2ccccc2)C(=O)O)C(C)C)NC(=O)[C@H](Cc2c[nH]c4ccccc24)NC(=O)[C@H](CCC(N)=O)NC(=O)[C@H](Cc2c[nH]cn2)NC(=O)[C@H]([C@@H](C)O)NC(=O)[C@H](CCCNC(=N)N)NC(=O)[C@H](CO)NC3=O)NC(=O)[C@H](CCCCN)NC(=O)[C@H](CC(=O)O)NC(=O)[C@H](CC(N)=O)NC(=O)[C@H](CC(=O)O)NC(=O)[C@@H]2CCCN2C1=O [compound 858] (H-DCLGALRKCIPDNDKCCRPNLVCSRTHQWCKYVF-OH; disulfide 2-17, 9-23, 16-30) | > 5 | > 5 | > 5
CC[C@H](C)[C@@H]1NC(=O)[C@@H]2CSSC[C@@H]3NC(=O)[C@H](C(C)C)NC(=O)[C@H](CC(C)C)NC(=O)[C@H](CC(N)=O)NC(=O)[C@@H]4CCCN4C(=O)[C@H](CCCNC(=N)N)NC(=O)[C@H](CSSC[C@H](NC(=O)[C@@H](N)CC(=O)O)C(=O)N[C@@H](CC(C)C)C(=O)NCC(=O)N[C@@H](C)C(=O)N[C@@H](CC(C)C)C(=O)N[C@@H](CCCNC(=N)N)C(=O)N[C@@H](CCCCN)C(=O)N2)NC(=O)[C@H](CSSC[C@@H](C(=O)N[C@@H](CCCCN)C(=O)N[C@@H](Cc2ccc(O)cc2)C(=O)N[C@H](C(=O)N[C@@H](Cc2ccccc2)C(=O)O)C(C)C)NC(=O)[C@H](Cc2c[nH]c4ccccc24)NC(=O)[C@H](CO)NC(=O)[C@H](Cc2c[nH]cn2)NC(=O)[C@H]([C@@H](C)O)NC(=O)[C@H](CCCNC(=N)N)NC(=O)[C@H](CO)NC3=O)NC(=O)[C@H](CCCCN)NC(=O)[C@H](CC(=O)O)NC(=O)[C@H](CC(N)=O)NC(=O)[C@H](CC(=O)O)NC(=O)[C@@H]2CCCN2C1=O [compound 859] (H-DCLGALRKCIPDNDKCCRPNLVCSRTHSWCKYVF-OH; disulfide 2-17, 9-23, 16-30) | > 5 | > 5 | > 5
CC[C@H](C)[C@@H]1NC(=O)[C@@H]2CSSC[C@@H]3NC(=O)[C@H](C(C)C)NC(=O)[C@H](CC(C)C)NC(=O)[C@H](CC(N)=O)NC(=O)[C@@H]4CCCN4C(=O)[C@H](CCCNC(=N)N)NC(=O)[C@H](CSSC[C@H](NC(=O)[C@@H](N)CC(=O)O)C(=O)N[C@@H](CC(C)C)C(=O)NCC(=O)N[C@@H](C)C(=O)N[C@@H](CC(C)C)C(=O)N[C@@H](CCCNC(=N)N)C(=O)N[C@@H](CCCCN)C(=O)N2)NC(=O)[C@H](CSSC[C@@H](C(=O)N[C@@H](CCCCN)C(=O)N[C@@H](Cc2ccc(O)cc2)C(=O)N[C@H](C(=O)N[C@@H](Cc2ccccc2)C(=O)O)C(C)C)NC(=O)[C@H](Cc2c[nH]c4ccccc24)NC(=O)[C@H](CCCNC(=N)N)NC(=O)[C@H](Cc2c[nH]cn2)NC(=O)[C@H]([C@@H](C)O)NC(=O)[C@H](CCCNC(=N)N)NC(=O)[C@H](CO)NC3=O)NC(=O)[C@H](CCCCN)NC(=O)[C@H](CC(=O)O)NC(=O)[C@H](C)NC(=O)[C@H](CC(=O)O)NC(=O)[C@@H]2CCCN2C1=O [compound 860] (H-DCLGALRKCIPDADKCCRPNLVCSRTHRWCKYVF-OH; disulfide 2-17, 9-23, 16-30) | > 5 | > 5 | 4.5
CC[C@H](C)[C@@H]1NC(=O)[C@@H]2CSSC[C@@H]3NC(=O)[C@H](C(C)C)NC(=O)[C@H](CC(C)C)NC(=O)[C@H](CC(N)=O)NC(=O)[C@@H]4CCCN4C(=O)[C@H](CCCNC(=N)N)NC(=O)[C@H](CSSC[C@H](NC(=O)[C@@H](N)CC(=O)O)C(=O)N[C@@H](CC(C)C)C(=O)NCC(=O)N[C@@H](C)C(=O)N[C@@H](CC(C)C)C(=O)N[C@@H](CCCNC(=N)N)C(=O)N[C@@H](CCCCN)C(=O)N2)NC(=O)[C@H](CSSC[C@@H](C(=O)N[C@@H](CCCCN)C(=O)N[C@@H](Cc2ccc(O)cc2)C(=O)N[C@H](C(=O)N[C@@H](Cc2ccccc2)C(=O)O)C(C)C)NC(=O)[C@H](Cc2c[nH]c4ccccc24)NC(=O)[C@H](CCCNC(=N)N)NC(=O)[C@H](Cc2c[nH]cn2)NC(=O)[C@H]([C@@H](C)O)NC(=O)[C@H](CCCNC(=N)N)NC(=O)[C@H](CO)NC3=O)NC(=O)[C@H](CCCCN)NC(=O)[C@H](CC(=O)O)NC(=O)[C@H](CC(=O)O)NC(=O)[C@H](CC(=O)O)NC(=O)[C@@H]2CCCN2C1=O [compound 861] (H-DCLGALRKCIPDDDKCCRPNLVCSRTHRWCKYVF-OH; disulfide 2-17, 9-23, 16-30) | > 5 | > 5 | > 5
CC[C@H](C)[C@@H]1NC(=O)[C@@H]2CSSC[C@@H]3NC(=O)[C@H](C(C)C)NC(=O)[C@H](CC(C)C)NC(=O)[C@H](CC(N)=O)NC(=O)[C@@H]4CCCN4C(=O)[C@H](CCCNC(=N)N)NC(=O)[C@H](CSSC[C@H](NC(=O)[C@@H](N)CC(=O)O)C(=O)N[C@@H](CC(C)C)C(=O)NCC(=O)N[C@@H](C)C(=O)N[C@@H](CC(C)C)C(=O)N[C@@H](CCCNC(=N)N)C(=O)N[C@@H](CCCCN)C(=O)N2)NC(=O)[C@H](CSSC[C@@H](C(=O)N[C@@H](CCCCN)C(=O)N[C@@H](Cc2ccc(O)cc2)C(=O)N[C@H](C(=O)N[C@@H](Cc2ccccc2)C(=O)O)C(C)C)NC(=O)[C@H](Cc2c[nH]c4ccccc24)NC(=O)[C@H](CCCNC(=N)N)NC(=O)[C@H](Cc2c[nH]cn2)NC(=O)[C@H]([C@@H](C)O)NC(=O)[C@H](CCCNC(=N)N)NC(=O)[C@H](CO)NC3=O)NC(=O)[C@H](CCCCN)NC(=O)[C@H](CC(=O)O)NC(=O)[C@H](CCC(=O)O)NC(=O)[C@H](CC(=O)O)NC(=O)[C@@H]2CCCN2C1=O [compound 862] (H-DCLGALRKCIPDEDKCCRPNLVCSRTHRWCKYVF-OH; disulfide 2-17, 9-23, 16-30) | > 5 | > 5 | > 5
CC[C@H](C)[C@@H]1NC(=O)[C@@H]2CSSC[C@@H]3NC(=O)[C@H](C(C)C)NC(=O)[C@H](CC(C)C)NC(=O)[C@H](CC(N)=O)NC(=O)[C@@H]4CCCN4C(=O)[C@H](CCCNC(=N)N)NC(=O)[C@H](CSSC[C@H](NC(=O)[C@@H](N)CC(=O)O)C(=O)N[C@@H](CC(C)C)C(=O)NCC(=O)N[C@@H](C)C(=O)N[C@@H](CC(C)C)C(=O)N[C@@H](CCCNC(=N)N)C(=O)N[C@@H](CCCCN)C(=O)N2)NC(=O)[C@H](CSSC[C@@H](C(=O)N[C@@H](CCCCN)C(=O)N[C@@H](Cc2ccc(O)cc2)C(=O)N[C@H](C(=O)N[C@@H](Cc2ccccc2)C(=O)O)C(C)C)NC(=O)[C@H](Cc2c[nH]c4ccccc24)NC(=O)[C@H](CCCNC(=N)N)NC(=O)[C@H](Cc2c[nH]cn2)NC(=O)[C@H]([C@@H](C)O)NC(=O)[C@H](CCCNC(=N)N)NC(=O)[C@H](CO)NC3=O)NC(=O)[C@H](CCCCN)NC(=O)[C@H](CC(=O)O)NC(=O)[C@H](Cc2ccccc2)NC(=O)[C@H](CC(=O)O)NC(=O)[C@@H]2CCCN2C1=O [compound 863] (H-DCLGALRKCIPDFDKCCRPNLVCSRTHRWCKYVF-OH; disulfide 2-17, 9-23, 16-30) | > 5 | > 5 | > 5
CC[C@H](C)[C@@H]1NC(=O)[C@@H]2CSSC[C@@H]3NC(=O)[C@H](C(C)C)NC(=O)[C@H](CC(C)C)NC(=O)[C@H](CC(N)=O)NC(=O)[C@@H]4CCCN4C(=O)[C@H](CCCNC(=N)N)NC(=O)[C@H](CSSC[C@H](NC(=O)[C@@H](N)CC(=O)O)C(=O)N[C@@H](CC(C)C)C(=O)NCC(=O)N[C@@H](C)C(=O)N[C@@H](CC(C)C)C(=O)N[C@@H](CCCNC(=N)N)C(=O)N[C@@H](CCCCN)C(=O)N2)NC(=O)[C@H](CSSC[C@@H](C(=O)N[C@@H](CCCCN)C(=O)N[C@@H](Cc2ccc(O)cc2)C(=O)N[C@H](C(=O)N[C@@H](Cc2ccccc2)C(=O)O)C(C)C)NC(=O)[C@H](Cc2c[nH]c4ccccc24)NC(=O)[C@H](CCCNC(=N)N)NC(=O)[C@H](Cc2c[nH]cn2)NC(=O)[C@H]([C@@H](C)O)NC(=O)[C@H](CCCNC(=N)N)NC(=O)[C@H](CO)NC3=O)NC(=O)[C@H](CCCCN)NC(=O)[C@H](CC(=O)O)NC(=O)[C@H](Cc2c[nH]cn2)NC(=O)[C@H](CC(=O)O)NC(=O)[C@@H]2CCCN2C1=O [compound 864] (H-DCLGALRKCIPDHDKCCRPNLVCSRTHRWCKYVF-OH; disulfide 2-17, 9-23, 16-30) | > 5 | > 5 | 3.9
